Results from ChEMBL document CHEMBL2346635, “6-Oxo and 6-thio purine analogs as antimycobacterial agents” (Bioorg Med Chem, 2013).
≈ marks a conversion by molar mass, not a printed value.

Legend:
Type in all cases: functional
[1] = tested on: Mycobacterium tuberculosis; test: Antimycobacterial activity against thiacetazone-resistant Mycobacterium tuberculosis assessed as growth inhibition by Alamar blue assay
[2] = tested on: Mycobacterium tuberculosis; test: Antimycobacterial activity against rifampin-resistant Mycobacterium tuberculosis assessed as growth inhibition by Alamar blue assay
[3] = tested on: Mycobacterium tuberculosis; test: Antimycobacterial activity against ethambutol-resistant Mycobacterium tuberculosis assessed as growth inhibition by Alamar blue assay
[4] = tested on: Mycobacterium tuberculosis; test: Antimycobacterial activity against isoniazid-resistant Mycobacterium tuberculosis assessed as growth inhibition by Alamar blue assay
[5] = tested on: Mycobacterium tuberculosis; test: Antimycobacterial activity against ciprofloxacin-resistant Mycobacterium tuberculosis assessed as growth inhibition by Alamar blue assay
[6] = tested on: Mycobacterium tuberculosis; test: Antimycobacterial activity against kanamycin-resistant Mycobacterium tuberculosis assessed as growth inhibition by Alamar blue assay

| Compound | MIC90 [1] | MIC90 [2] | MIC90 [3] | MIC90 [4] | MIC90 [5] | MIC90 [6] |
| --- | --- | --- | --- | --- | --- | --- |
| CCCCCCCCCCCCSc1ncnc2c1ncn2CC(=O)OCC | 3.13 µg/mL (≈ 7.7 µM) | 3.13 µg/mL (≈ 7.7 µM) | 3.13 µg/mL (≈ 7.7 µM) | 1.56 µg/mL (≈ 3.84 µM) | 1.56 µg/mL (≈ 3.84 µM) |  |
| CCCCCCCCCCSc1ncnc2c1ncn2CC(=O)OCC |  | 6.25 µg/mL (≈ 16.5 µM) | 6.25 µg/mL (≈ 16.5 µM) | 12.5 µg/mL (≈ 33 µM) | 12.5 µg/mL (≈ 33 µM) | 6.25 µg/mL (≈ 16.5 µM) |
